This is an account of results in ChEMBL document CHEMBL4393657, “Tetrazole hybrids and their antifungal activities” (2019).

Common to all, as to format: functional
The subject of assay [1] is Candida albicans. Description: Antifungal activity against Candida albicans assessed as reduction in fungal cell growth incubated for 48 hrs by broth microdilution susceptibility method. (Broth dilution looks for growth in wells or tubes with falling amounts of substance.)
For assay [2], the system named is Candida albicans. Description: Antifungal activity against Candida albicans assessed as reduction in fungal cell growth incubated for 24 and 72 hrs by cup plate method.
Assay [3] deals with Fusarium oxysporum. The assay can be described thus: Antifungal activity against Fusarium oxysporum assessed as reduction in fungal cell growth incubated for 24 and 72 hrs by cup plate method.
Assay [4] has as its system Aspergillus flavus. The assay can be described thus: Antifungal activity against Aspergillus flavus assessed as reduction in fungal cell growth incubated for 24 and 72 hrs by cup plate method.
Assay [5] deals with Candida albicans. The assay can be described thus: Antifungal activity against Candida albicans TA.
Assay [6] concerns Candida albicans. The assay can be described thus: Antifungal activity against Candida albicans NCCS 3471 assessed as inhibition zone at 50 ug/ml incubated for 3 to 4 days by disk diffusion method. The following applies: read-out: IZ. (Agar diffusion results depend on both activity and mobility in agar.)
Assay [7] concerns Aspergillus fumigatus. The assay can be described thus: Antifungal activity against Aspergillus fumigatus NCIM 902 assessed as inhibition zone at 50 ug/ml incubated for 3 to 4 days by disk diffusion method. The following applies: read-out: IZ.
Assay [8] has as its system Aspergillus niger. Description: Antifungal activity against Aspergillus niger assessed as inhibition zone at 250 ug/ml. The following applies: read-out: IZ.
Assay [9] has as its system Candida albicans. The assay can be described thus: Antifungal activity against Candida albicans assessed as inhibition zone at 250 ug/ml. Particulars: read-out: IZ.
In assay [10] the test system is Candida albicans. The assay can be described thus: In vivo antifungal activity against Candida albicans TA infected in CDF-1 mouse dosed orally assessed as survival of mouse. The following applies: po.

Structures are written as SMILES. In brackets after ≈: the same amount, converted by molar mass.

As usually defined, the MIC is the least concentration at which growth counts as inhibited. Take `Cc1ccc(N2C(=O)CC(=O)N(/N=C/c3cc4ccccc4n4nnnc34)C2=S)cc1`: the minimum inhibitory concentration (MIC) in [1] is not below 100 µg/mL.
Turning to `CCOC(=O)C(C#N)C(c1cc2ccc(OC)cc2n2nnnc12)P(=O)(OCC)OCC` (stereo not given), the MIC in assay [2], in assay [3] and in [4] was 10 to 25 µg/mL (≈ 21.7 to 54.2 µM) each time.
Take `COc1ccc2c(c1)cc(C1CC(c3cc(Br)ccc3O)=NN1)c1nnnn12` (stereo not given): the minimum inhibitory concentration (MIC) in [2], in [3] and in assay [4] was 25 to 100 µg/mL (≈ 56.9 to 228 µM) throughout.
In turn, `C[C@@H](n1ncnn1)[C@](O)(Cn1cncn1)c1ccc(F)cc1F` registered an MIC in [5] of 100 µg/mL (≈ 311 µM).
Consider `Brc1ccc(-n2nnnc2-c2cccnc2)cc1`, for which the zone of inhibition at 50 µg/mL in assay [6] is 19 mm; in assay [7], 17 mm.
Take `S=C1N=C(c2ccc(Br)cc2)CC(c2cc3ccccc3n3nnnc23)N1` (stereo not given): in [1], the minimal inhibitory concentration (MIC) was not below 100 µg/mL.
For `Clc1ccc(-c2nnnn2-c2nc3ccccc3s2)cc1`, the zone of inhibition at 250 µg/mL in assay [8] and in assay [9] was 13 to 23 mm throughout.
Regarding `Cc1ccc(-n2nnnc2-c2cccnc2)cc1`, the zone of inhibition at 50 µg/mL in [6] and in [7] was 10 to 19 mm in each case.
For the compound `COc1ccc2cc(C3CC(c4cc(Br)ccc4O)=NO3)c3nnnn3c2c1` (stereo not given), the MIC in assay [2] is 25 µg/mL (≈ 56.8 µM); in [3], 25 to 100 µg/mL (≈ 56.8 to 227 µM); in assay [4] it was 25 µg/mL (≈ 56.8 µM).
On to `CCOC(=O)C(C#N)C(c1cc2cc(OC)ccc2n2nnnc12)P(=O)(OCC)OCC` (stereo not given), for which the MIC in [2], in assay [3] and in assay [4] was 10 to 25 µg/mL (≈ 21.7 to 54.2 µM) each time.
For `CCOC(=O)C(C#N)C(c1cc2cc(C)ccc2n2nnnc12)P(=O)(OCC)OCC` (stereo not given), the MIC in [2], in assay [3] and in [4] was 10 to 25 µg/mL (≈ 22.5 to 56.1 µM) each time.
With `Cc1cccc2c1cc(/C=C/C(=O)c1cc(Br)ccc1O)c1nnnn12`, the MIC in assay [2], in [3] and in assay [4] was 25 to 100 µg/mL (≈ 61.1 to 244 µM) throughout.
Take `C[C@@H](n1ncnn1)[C@](O)(Cn1cncn1)c1ccc(F)cc1`: the lowest concentration to inhibit growth in assay [5] (MIC) was 100 µg/mL (≈ 330 µM).
On to `COc1cccc2c1cc(/C=C/C(=O)c1cc(Br)ccc1O)c1nnnn12`, for which the MIC in [2], in assay [3] and in assay [4] was 25 to 100 µg/mL (≈ 58.8 to 235 µM) each time.
Take `COc1ccccc1-n1nnnc1-c1cccnc1`: the zone of inhibition at 50 µg/mL in [6] and in [7] was 10 to 19 mm each time.
Consider `O=[N+]([O-])c1cccc(-c2nnnn2-c2nc3ccccc3s2)c1`, for which the zone of inhibition at 250 µg/mL in assay [8] and in [9] was 13 to 23 mm each time.
In the case of `Oc1ccc(-c2nnnn2-c2nc3ccccc3s2)cc1`, the zone of inhibition at 250 µg/mL in assay [8] and in [9] was 13 to 23 mm throughout.
Take `Clc1ccccc1C(c1ccccc1)(c1ccccc1)n1ccnc1` [CLOTRIMAZOLE]: in assay [1], the minimum inhibitory concentration (MIC) came to 12.5 µg/mL (≈ 36.2 µM).
For the compound `COc1ccc(-n2nnnc2-c2cccnc2)cc1`, the zone of inhibition at 50 µg/mL in [6] and in assay [7] was 10 to 19 mm each time.
`O=C1CC(=O)N(c2ccccc2)C(=S)N1/N=C/c1cc2ccccc2n2nnnc12`: the MIC in assay [1] was not below 100 µg/mL.
With `S=C1N=C(c2ccccc2)CC(c2cc3ccccc3n3nnnc23)N1` (stereo not given), in [1], the minimum inhibitory concentration (MIC) is not below 100 µg/mL.
For `CCOC(=O)C(C#N)C(c1cc2ccc(C)cc2n2nnnc12)P(=O)(OCC)OCC` (stereo not given), the minimum inhibitory concentration (MIC) in assay [2], in assay [3] and in assay [4] was 10 to 25 µg/mL (≈ 22.5 to 56.1 µM) throughout.
Broadly, the ED50 is the midpoint of the dose-response relation. Regarding `C[C@@H](n1nnn(-c2ccc(OCC(F)(F)C(F)F)cc2)c1=O)[C@](O)(Cn1cncn1)c1ccccc1`, in assay [10], the ED50 is 0.71 to 2 mg/kg.
On to `CCOC(=O)C(C#N)C(c1cc2c(OCC)cccc2n2nnnc12)P(=O)(OCC)OCC` (stereo not given), for which the minimum inhibitory concentration (MIC) in [2], in assay [3] and in [4] was 10 to 25 µg/mL (≈ 21 to 52.6 µM) each time.
With `C[C@@H](n1nnn(-c2ccc(OC(F)(F)C(F)F)cc2)c1=O)[C@](O)(Cn1cncn1)c1ccccc1`, in [10], the median effective dose (ED50) lay in the range of 0.71 to 2 mg/kg.
As for `Cc1ccc2cc(/C=C3\SC(=S)N(CC(=O)O)C3=O)c3nnnn3c2c1`, the minimal inhibitory concentration (MIC) in assay [2], in [3] and in [4] was 25 to 50 µg/mL (≈ 64.9 to 130 µM) each time.
For the compound `Clc1ccccc1-n1nnnc1-c1cccnc1`, the values for the zone of inhibition at 50 µg/mL in assay [6] and in assay [7] were 17 mm and 15 mm, respectively.
With `C[C@@H](n1nnn(-c2ccc(OC(F)(F)F)cc2)c1=O)[C@](O)(Cn1cncn1)c1ccccc1`, the ED50 in assay [10] was 0.71 to 2 mg/kg.
Regarding `c1ccc(-c2nnnn2-c2nc3ccccc3s2)cc1`, the zone of inhibition at 250 µg/mL in [8] and in assay [9] was 13 to 23 mm each time.
For the compound `Cc1ccc(N2C(=O)/C(=C\c3ccc(N(C)C)cc3)C(=O)N(/N=C/c3cc4ccccc4n4nnnc34)C2=S)cc1`, the MIC in assay [1] was not below 100 µg/mL.
Take `CN(C)c1ccc(/C=C2/C(=O)N(/N=C/c3cc4ccccc4n4nnnc34)C(=S)N(c3ccc(Cl)cc3)C2=O)cc1`: the minimum inhibitory concentration (MIC) in assay [1] is not below 100 µg/mL.
